Data as given in US4470840A, “1-Triacontanol plant growth stimulator formulations” (Biochemical Research Corporation, priority 1981, dated 1984).

Columns and labels:
Format in all cases: in vivo
[1] = test system: Hybrid Sweet Corn Seedlings (cv. Silver Queen); experiment: Greenhouse trial: dry weight and water uptake of seedlings after foliar spraying; conditions: for Increase in dry weight: 1-triacontanol 0.1 mg/liter, additive 9 mM (none in the last line); for % increase (dry weight) / % increase (water uptake) / Dry weight / Water uptake: metal ion 9 mM (none in the last line) with 1-triacontanol 0.1 mg/liter, pH 8 to 10; for Dry weight: control 0.86 g; for Water uptake: control 8.7 g
Description: (§1) In general, greenhouse trials were conducted as follows: eight to twelve seeds were sown per pot in Peat-Lite® Mix and received an average of 100 ml of water per day. After plants had the third true leaf (average), the various formulations were applied to the leaves as a fine mist at air temperatures listed in Table 1. Temperatures above 20° C., preferably 25°-30° C., are preferred.
(§2) The 1-triacontanol formulation most generally used consisted of a concentrate containing 5 mg of 1-triacontanol dissolved in 1 liter of acetone, with 20 ml of the concentrate being further dissolved to 1 liter with water having a pH between 8 and 10, with over a pH of 11 also being effective. The pH was adjusted with aqueous NaOH and the concentrate added just prior to spraying.
(§3) When other plant growth substances were added to the formulations, these were added either to the concentrate in the polar organic solvent or alternatively in the aqueous solution, depending on the solubility of the plant growth substance. All metal salts were added to the water used to spray the 1-triacontanol formulations. After spraying, preferably about four to nine days or more, plants were harvested with roots, and fresh weights were obtained. Plants were then dried in an oven, preferably at a temperature below 100° C., until constant weight was obtained, and dry weight values were obtained for each plot. Subtraction of the dry weights from the fresh weights gave the water uptake weights (water content) of each plot. The weights of the above mentioned seedlings were compared to the control weights to obtain the percent increases.
(§4) It is particularly advantageous to arrange each of the potted plants in size range categories corresponding to the number of replications used. For example, if five replications are employed, plants are divided into five size categories, normally measured by the height of the plants. Treatments are then assigned randomly within each block (size category). This removes the variation due to plant size for statistical purposes, as is well practiced in the art. The resulting data is analyzed using any appropriate means, which may include the least significant difference method (L.S.D. method), Duncan's multiple range test, as used here (Biometrics, 11: 1 (1955)), or other means.

[2] = test system: Hybrid Sweet Corn Seedlings (cv. Silver Queen); experiment: Lengths of stems and total plant length of seedlings sprayed Day 7; conditions: T = 1-triacontanol 0.1 mg/liter; for Length "a" (stem to the first leaf): control 11.5 cm; for Length "b" (total plant length): control 25.0 cm
[3] = test system: Field Corn Seedlings (cv. Trojan TXS 94, Pioneer 3780, WF9 X Bear 38); experiment: Greenhouse trial: dry weight and water uptake of seedlings after foliar spraying; conditions: for Dry wt. increase: 1-triacontanol 0.1 mg/liter
Description: as §1, §2, §3, §4

[4] = 14-day old seedlings, plant growth substance 0.01 mM, with 1-triacontanol 0.1 mg/liter
[5] = 14-day old seedlings, plant growth substance 0.01 mM, without 1-triacontanol
[6] = plant growth substance 0.01 mM, CaCl2 10 mM, 1-triacontanol 0.5 mg per liter, pH 8
[7] = plant growth substance 0.01 mM, CaCl2 50 mM, 1-triacontanol 0.5 mg per liter, pH 8
[8] = plant growth substance 0.001 mM, CaCl2 50 mM, 1-triacontanol 0.5 mg per liter, pH 8
[9] = plant growth substance 0.10 mM, CaCl2 50 mM, 1-triacontanol 0.5 mg per liter, pH 8
[10] = 14-day old seedlings, Formulation 4
[11] = 14-day old seedlings, metal salt 1 mM (1 ea. for the mixture), with 1-triacontanol 0.1 mg/liter, Formulation 4
[12] = cv. Trojan TXS 94, brassinosteroid 0.4 μM w/o triacontanol, Formulation 7
[13] = cv. Trojan TXS 94, brassinosteroid 0.4 μM with 1-triacontanol 0.5 mg/liter containing 10 mM CaCl2, Formulation 7
[14] = cv. Trojan TXS 94, metal salt 1 mM (1 ea. for the mixture), Formulation 4
[15] = 14-day old seedlings, metal salt 5 mM, with 1-triacontanol 0.1 mg/liter, Formulation 4
[16] = 14-day old seedlings, metal salt 5 mM, with 1-triacontanol 0.1 mg/liter, Formulation 11 (chloroform, Tween-20)
[17] = 14-day old seedlings, metal salt 10 mM, with 1-triacontanol 0.1 mg/liter, Formulation 4
[18] = 14-day old seedlings, metal salt 10 mM, with 1-triacontanol 0.1 mg/liter, Formulation 11 (chloroform, Tween-20)
[19] = 14-day old seedlings, metal salt 10 mM, without 1-triacontanol, Formulation 4
[20] = 14-day old seedlings, plant growth substance 0.10 mM, with 1-triacontanol 0.1 mg/liter
[21] = 14-day old seedlings, plant growth substance 0.10 mM, without 1-triacontanol
[22] = plant growth substance 0.04 mM, CaCl2 10 mM, 1-triacontanol 0.5 mg per liter, pH 8
[23] = plant growth substance 0.04 mM, CaCl2 50 mM, 1-triacontanol 0.5 mg per liter, pH 8

Compound: c1coc(CNc2ncnc3nc[nH]c23)c1 [Kinetin, 6-furfurylamino purine, reference compound]
- Increases, H2O uptake [1, 4]: +14%
- Increases, dry wt. [1, 4]: -21%
- Increases, H2O uptake [1, 5]: -3%
- Increases, dry wt. [1, 5]: -24%
- Increases, H2O uptake [1, 6]: +13%
- Increases, dry wt. [1, 6]: +3%
- Increases, H2O uptake [1, 7]: -2%
- Increases, dry wt. [1, 7]: +1%
- Increase in length "a" [2]: 0%
- Increase in length "b" [2]: +30%
- Length "a" (stem to the first leaf) [2]: 11.5 cm
- Length "b" (total plant length) [2]: 32.5 cm

Compound: O=C(O)Cc1c[nH]c2ccccc12 [IAA, indole-3-acetic acid, reference compound]
- Increases, H2O uptake [1, 4]: -5%
- Increases, dry wt. [1, 4]: +2%
- Increases, H2O uptake [1, 5]: -7%
- Increases, dry wt. [1, 5]: +4%
- Increases, H2O uptake [1, 8]: +18%
- Increases, dry wt. [1, 8]: +37%
- Increases, H2O uptake [1, 7]: +25%
- Increases, dry wt. [1, 7]: +56%
- Increases, H2O uptake [1, 9]: +14%
- Increases, dry wt. [1, 9]: +36%
- Increase in length "a" [2]: 0%
- Increase in length "b" [2]: -2%
- Length "a" (stem to the first leaf) [2]: 11.6 cm
- Length "b" (total plant length) [2]: 24.4 cm

Compound: CC(C)CC(N)C(=O)[O-].CC(C)CC(N)C(=O)[O-].[Ca+2] (stereo not shown) [Metal Proteinate, reference compound]
- Increase in dry weight ([1]; Formulation 4): +15%

Compound: [Ba+2] [Ba^+2]
- % increase (dry weight) [1, 10]: +35%
- % increase (water uptake) [1, 10]: +48%
- Dry weight [1, 10]: 1.16 g
- Water uptake [1, 10]: 12.9 g

Compound: [Cl-].[Cl-].[Mg+2] [MgCl2]
- Increases, H2O uptake [1, 11]: +20%
- Increases, dry wt. [1, 11]: +21%

Compound: [Pb+2] [Pb^+2]
- % increase (dry weight) [1, 10]: +81%
- % increase (water uptake) [1, 10]: +55%
- Dry weight [1, 10]: 1.56 g
- Water uptake [1, 10]: 13.5 g

Compound: N.N.N.N.N.N.[Cl-].[Cl-].[Cl-].[Co+3] [Co(NH3)6 Cl3, reference compound]
- Increase in dry weight ([1]; Formulation 4): +13%

Compound: CC(C)[C@@H](C)[C@H](O)[C@@H](O)[C@@H](C)[C@H]1CC[C@H]2[C@@H]3COC(=O)[C@H]4C[C@H](O)[C@H](O)C[C@]4(C)[C@H]3CC[C@]12C [Brassinosteroid, 2α,3α,22α,23α-tetrahydroxy-24α-methyl-B-hoo-5α-cholestan-6-one, reference compound]
- Increases, dry wt. [3, 12]: +11%
- Increases, water uptake [3, 12]: +8%
- Increases, dry wt. [3, 13]: +19%
- Increases, water uptake [3, 13]: +10%

Compound: [Cd+2] [Cd^+2]
- % increase (dry weight) [1, 10]: +58%
- % increase (water uptake) [1, 10]: +14%
- Dry weight [1, 10]: 1.36 g
- Water uptake [1, 10]: 9.9 g

Compound: [Ca+2].[Cl-].[Cl-] [CaCl2]
- Dry wt. increase ([3]; cv. Pioneer 3780, metal salt 0 mM, Formulation 11): -5%
- Dry wt. increase ([3]; cv. Pioneer 3780, metal salt 1 mM, Formulation 4): +19%
- Dry wt. increase ([3]; cv. Pioneer 3780, metal salt 7.5 mM, Formulation 4, NAA 1.0 μM): +32%
- Dry wt. increase ([3]; cv. Trojan TXS 94, metal salt 0.5 mM, Formulation 4): +22%
- Dry wt. increase [3, 14]: 20-30%
- Dry wt. increase ([3]; cv. Trojan TXS 94, metal salt 1 mM, Formulation 11): -10%
- Dry wt. increase ([3]; cv. Trojan TXS 94, metal salt 1.25 mM, Formulation 4): +30%
- Dry wt. increase ([3]; cv. Trojan TXS 94, metal salt 5 mM, Formulation 7, 2,4,5-T 10.0 μM): +22%
- Dry wt. increase ([3]; cv. Trojan TXS 94, metal salt 5 mM, Formulation 7, 2,4-D 10.0 μM): +23%
- Dry wt. increase ([3]; cv. Trojan TXS 94, metal salt 6 mM, Formulation 7, NAA 1.0 μM): +28%
- Dry wt. increase ([3]; cv. Trojan TXS 94, metal salt 3-5 mM, Formulation 7, IAA 10.0 μM): 20-30%
- Dry wt. increase ([3]; cv. WF9 X Bear 38, metal salt 1 mM, Formulation 4): +8%
- Increase in dry weight ([1]; Formulation 4): +50%
- Increases, H2O uptake [1, 11]: +35%
- Increases, dry wt. [1, 11]: +42%
- Increases, H2O uptake [1, 15]: +21%
- Increases, dry wt. [1, 15]: +50%
- Increases, H2O uptake [1, 16]: +6%
- Increases, dry wt. [1, 16]: +5%
- Increases, H2O uptake [1, 17]: +11%
- Increases, dry wt. [1, 17]: +65%
- Increases, H2O uptake [1, 18]: +9%
- Increases, dry wt. [1, 18]: -5%
- Increases, H2O uptake [1, 19]: -2%
- Increases, dry wt. [1, 19]: +4%

Compound: O=c1ccc(=O)[nH][nH]1 [MH, maleic hydrazide, reference compound]
- Increases, H2O uptake [1, 20]: -7%
- Increases, dry wt. [1, 20]: +12%
- Increases, H2O uptake [1, 21]: -1%
- Increases, dry wt. [1, 21]: +7%

Compound: [Mn+2] [Mn^+2]
- % increase (dry weight) [1, 10]: +31%
- % increase (water uptake) [1, 10]: +25%
- Dry weight [1, 10]: 1.13 g
- Water uptake [1, 10]: 10.9 g

Compound: [Mg+2] [Mg^+2]
- % increase (dry weight) [1, 10]: +73%
- % increase (water uptake) [1, 10]: +55%
- Dry weight [1, 10]: 1.49 g
- Water uptake [1, 10]: 13.5 g

Compound: [Ca+2] [Ca^+2]
- % increase (dry weight) [1, 10]: +50%
- % increase (water uptake) [1, 10]: +16%
- Dry weight [1, 10]: 1.29 g
- Water uptake [1, 10]: 10.1 g

Compound: O=C(O)c1cc(I)cc(I)c1I [TIBA, 2,3,5-triiodobenzoic acid, reference compound]
- Increases, H2O uptake [1, 20]: +1%
- Increases, dry wt. [1, 20]: +19%
- Increases, H2O uptake [1, 21]: -12%
- Increases, dry wt. [1, 21]: +10%

Compound: O=S(=O)([O-])[O-].O=S(=O)([O-])[O-].[Ce+4] [Ce(SO4)2]
- Increases, H2O uptake [1, 11]: +26%
- Increases, dry wt. [1, 11]: +21%

Compound: C=C1C[C@]23C[C@@]1(O)CC[C@H]2[C@@]12C=C[C@H](O)[C@@](C)(C(=O)O1)[C@H]2[C@@H]3C(=O)O [GA3, gibberellic acid, reference compound]
- Increases, H2O uptake [1, 4]: -3%
- Increases, dry wt. [1, 4]: -15%
- Increases, H2O uptake [1, 5]: -6%
- Increases, dry wt. [1, 5]: -24%
- Increases, H2O uptake [1, 22]: +15%
- Increases, dry wt. [1, 22]: +16%
- Increases, H2O uptake [1, 23]: +13%
- Increases, dry wt. [1, 23]: +22%
- Increase in length "a" [2]: -3%
- Increase in length "b" [2]: +6%
- Length "a" (stem to the first leaf) [2]: 11.2 cm
- Length "b" (total plant length) [2]: 26.6 cm

Compound: [Cl][La]([Cl])[Cl] [LaCl3]
- Dry wt. increase [3, 14]: 25-30%
- Increases, dry wt. [1, 17]: +72%
- Increases, H2O uptake [1, 19]: -2%
- Increases, dry wt. [1, 19]: +5%

Compound: O=C(O)COc1ccc(Cl)cc1Cl [2,4-D, 2,4-dichlorophenoxyacetic acid, reference compound]
- Increases, H2O uptake [1, 4]: -13%
- Increases, dry wt. [1, 4]: +17%
- Increases, H2O uptake [1, 5]: -9%
- Increases, dry wt. [1, 5]: +10%
- Increase in dry weight over controls ([1]; formulations containing metal ions and synthetic auxin, cv. Silver Queen): 100%

Compound: [Zn+2] [Zn^+2]
- % increase (dry weight) [1, 10]: +38%
- % increase (water uptake) [1, 10]: +21%
- Dry weight [1, 10]: 1.17 g
- Water uptake [1, 10]: 10.5 g

Compound: [Cl][Mn][Cl] [MnCl2]
- Increases, H2O uptake [1, 11]: +29%
- Increases, dry wt. [1, 11]: +9%

Compound: [Sr+2] [Sr^+2]
- % increase (dry weight) [1, 10]: +81%
- % increase (water uptake) [1, 10]: +48%
- Dry weight [1, 10]: 1.56 g
- Water uptake [1, 10]: 12.9 g
